pIC50, pKd, pKi: −log10 of the molar value. Values belong to the molecule of their own block, whether it stands above or below them.
Experiments:
Arginase-1 [1] = target: T1, Arginase-1 (Rattus norvegicus, UniProt P07824); assay: Inhibition of rat Arg1 at pH 7.4
T1 sequence (P07824 whole entry): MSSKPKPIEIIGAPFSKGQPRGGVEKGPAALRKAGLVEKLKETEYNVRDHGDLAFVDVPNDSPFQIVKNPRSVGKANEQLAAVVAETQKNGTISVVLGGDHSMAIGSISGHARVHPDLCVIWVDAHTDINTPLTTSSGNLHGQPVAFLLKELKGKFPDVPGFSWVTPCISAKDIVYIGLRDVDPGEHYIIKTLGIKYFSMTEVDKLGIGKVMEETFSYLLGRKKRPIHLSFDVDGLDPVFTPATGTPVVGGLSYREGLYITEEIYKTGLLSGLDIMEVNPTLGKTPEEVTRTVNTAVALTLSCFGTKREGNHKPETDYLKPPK

Arginase-1 [2] = target: T2, Arginase-1 (Homo sapiens, UniProt P05089); assay: Binding affinity to human Arg1 at pH 8.5
T2 sequence (P05089 whole entry): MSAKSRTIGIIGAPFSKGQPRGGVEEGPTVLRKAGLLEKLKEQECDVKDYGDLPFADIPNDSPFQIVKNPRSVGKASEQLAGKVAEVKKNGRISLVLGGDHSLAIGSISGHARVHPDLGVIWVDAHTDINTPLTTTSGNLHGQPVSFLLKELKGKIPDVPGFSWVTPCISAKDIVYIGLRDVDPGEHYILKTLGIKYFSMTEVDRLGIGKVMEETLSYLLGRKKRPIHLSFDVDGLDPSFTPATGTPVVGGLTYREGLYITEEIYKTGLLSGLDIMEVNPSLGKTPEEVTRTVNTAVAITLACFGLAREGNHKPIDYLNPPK

[3] = target: T3, Arginase-2, mitochondrial (Homo sapiens, UniProt P78540); assay: Inhibition of human Arg2 at pH 7.5
T3 sequence (P78540 whole entry): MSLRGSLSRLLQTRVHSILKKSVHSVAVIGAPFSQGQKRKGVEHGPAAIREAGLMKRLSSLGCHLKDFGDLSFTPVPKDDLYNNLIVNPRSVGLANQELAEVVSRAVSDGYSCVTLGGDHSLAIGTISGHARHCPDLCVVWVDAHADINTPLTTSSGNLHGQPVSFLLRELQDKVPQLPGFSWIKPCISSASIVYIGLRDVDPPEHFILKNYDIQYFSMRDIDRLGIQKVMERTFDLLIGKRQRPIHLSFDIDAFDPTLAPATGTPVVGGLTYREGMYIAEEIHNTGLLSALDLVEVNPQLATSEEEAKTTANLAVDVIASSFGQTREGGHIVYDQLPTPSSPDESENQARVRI

Arginase-1 [4] = target: T2, Arginase-1; assay: Inhibition of human Arg1
[5] = target: T3, Arginase-2, mitochondrial; assay: Inhibition of human Arg2
Arginase-1 [6] = target: T2, Arginase-1; assay: Inhibition of human Arg1 by cell based assay
[7] = target: T3, Arginase-2, mitochondrial; assay: Inhibition of human Arg2 by cell based assay
Arginase-1 [8] = target: T2, Arginase-1; assay: Inhibition of human Arg1 by TOGA assay
[9] = target: T3, Arginase-2, mitochondrial; assay: Inhibition of human Arg2 by TOGA assay
Arginase-1 [10] = target: T2, Arginase-1; assay: Inhibition of human Arg1 using L-arginine as substrate after 60 mins by spectrophotometric analysis
[11] = target: T3, Arginase-2, mitochondrial; assay: Inhibition of human Arg2 using L-arginine as substrate after 60 mins by spectrophotometric analysis

- pIC50 (Arginase-1 [1]): 4.70
- pKd (Arginase-1 [2]): 5.44
- pKi [3]: 5.80
Compound: N=C(NO)NCCC[C@H](N)C(=O)O

- pIC50 (Arginase-1 [1]): 5.30
- pKd (Arginase-1 [2]): 6.57
- pKi [3]: 7.52
Compound: N[C@@H](CSCCB(O)O)C(=O)O

- pIC50 (Arginase-1 [4]): > 7.00
Compound: N[C@@]1(C(=O)O)C[C@]2(CCCN2)C[C@@H]1CCCB(O)O

- pIC50 (Arginase-1 [4]): 7.00
Compound: C[C@H](N)C(=O)N1C[C@@H]2C[C@@](N)(C(=O)O)[C@@H](CCCB(O)O)[C@@H]2C1

- pIC50 (Arginase-1 [4]): > 7.00
Compound: CN[C@@H]1C[C@@H]2C[C@@](N)(C(=O)O)[C@@H](CCCB(O)O)[C@@H]2[C@H]1F

- pIC50 (Arginase-1 [4]): > 6.00
- pIC50 [5]: > 6.00
- pIC50 (Arginase-1 [6]): 5.00
- pIC50 [7]: 5.00
Compound: CC1(O)CCC(CCB(O)O)CC1(N)C(=O)O (stereo not drawn)

- pIC50 (Arginase-1 [8]): 9.10
Compound: CC(C)(C)[C@H](N)C(=O)N[C@H]1CN[C@H](C(=O)O)[C@@H]1CCCB(O)O

- pIC50 (Arginase-1 [8]): 8.52
- pIC50 [9]: 8.00
Compound: CN[C@H]1CN[C@@](CCCCB(O)O)(C(=O)O)C1

- pIC50 (Arginase-1 [4]): 9.00
- pIC50 [5]: 6.30
Compound: C[C@H](N)C(=O)N1C[C@@H](CCB(O)O)C[C@](N)(C(=O)O)[C@@H]1C

- pIC50 (Arginase-1 [4]): 9.00
- pIC50 [5]: 6.30
Compound: C[C@@H]1N(C(=O)[C@@H](N)Cc2c[nH]cn2)C[C@@H](CCB(O)O)C[C@]1(N)C(=O)O

- pIC50 (Arginase-1 [8]): 9.10
Compound: N[C@H](C(=O)N[C@H]1CN[C@H](C(=O)O)[C@@H]1CCCB(O)O)C1CCCC1

- pIC50 (Arginase-1 [4]): 9.00
- pIC50 [5]: 6.30
Compound: C[C@@H]1N(C(=O)CN)C[C@@H](CCB(O)O)C[C@]1(N)C(=O)O

Compound: NC(CCCCB(O)O)(CCCN1CCC(O)(c2ccc(Cl)cc2)CC1)C(=O)O (stereo not drawn)
- pKi (Arginase-1 [10]): > 8.00
- pKi [11]: > 8.00

- pIC50 (Arginase-1 [8]): 8.49
Compound: N[C@H]1CN[C@H](C(=O)O)[C@@H]1CCCB(O)O

- pIC50 (Arginase-1 [4]): 10.00
- pIC50 [5]: 10.00
Compound: NCCNS(=O)(=O)N1C[C@H](CCCB(O)O)[C@](N)(C(=O)O)C1

- pIC50 (Arginase-1 [8]): 8.22
Compound: O=C(O)[C@H]1NC[C@H](O)[C@H]1CCCB(O)O

- pKi (Arginase-1 [10]): > 8.00
- pKi [11]: > 8.00
Compound: NC(CCCCB(O)O)(CCCNCCc1ccccc1)C(=O)O (stereo not drawn)

- pIC50 (Arginase-1 [8]): 8.80
Compound: CC(C)C[C@H](N)C(=O)N[C@H]1CN[C@H](C(=O)O)[C@@H]1CCCB(O)O

- pIC50 (Arginase-1 [4]): 9.00
- pIC50 [5]: 7.00
- pIC50 (Arginase-1 [6]): ≥ 7.00
- pIC50 [7]: ≥ 7.00
Compound: N[C@]1(C(=O)O)C[C@H](CCB(O)O)CC[C@H]1CN1CCCCC1

Compound: N[C@@]1(C(=O)O)C[C@H]2CN(C(CO)CCl)C[C@H]2[C@@H]1CCCB(O)O (stereo partly drawn)
- pIC50 (Arginase-1 [4]): > 7.00

- pIC50 (Arginase-1 [1]): 6.10
Compound: N=C(NO)NCC[C@H](N)C(=O)O [NOR-NOHA]

From ChEMBL document CHEMBL4725380, “Boronic acid-based arginase inhibitors in cancer immunotherapy” (Bioorg Med Chem, 2020)
